Source: ChEMBL document CHEMBL1122195, “Effect of 4'-halogen substitution on the mutagenicity of trans-4-acetamidostilbene and trans-4-(N-hydroxyacetamido)stilbene in the Salmonella typhimurium test system” (1982)

Each compound was assayed on Salmonella typhimurium (assay: Comparative mutagenic activity toward Salmonella Typhimurium strain TA-100 at concentration of 10 nmol/plate).
Format: functional, Salmonella enterica subsp. enterica serovar Typhimurium

First: CC(=O)Nc1ccc(/C=C/c2ccccc2)cc1
Second: CC(=O)N(O)c1ccc(/C=C/c2ccccc2)cc1
The Revertants/plate of the first is lower: 385 for the first, 1218 for the second.

Compared with CC(=O)N(O)c1ccc(/C=C/c2ccc(Cl)cc2)cc1, CC(=O)N(O)c1ccc(/C=C/c2ccc(Br)cc2)cc1 is higher in Revertants/plate: 356 for the first, 374 for the second.

First: CC(=O)N(O)c1ccc(/C=C/c2ccc(F)cc2)cc1
Second: CC(=O)Nc1ccc(/C=C/c2ccc(F)cc2)cc1
The Revertants/plate of the first is higher: 825 for the first, 632 for the second.

Going from CC(=O)Nc1ccc(/C=C/c2ccc(Cl)cc2)cc1 to CC(=O)Nc1ccc(/C=C/c2ccc(Br)cc2)cc1, the Revertants/plate falls from 382 to 211.
